In patent publication US8637516B2 (IRM LLC, priority 2010, dated 2014):

What was measured:
[1] = target: T1, Ba/F3 cells transformed with human Tel-TrkA (Homo sapiens, UniProt P04629); experiment: Proliferation of Ba/F3 cells transformed with human Tel-TrkA (Ba/F3 Tel-TrkA); assay type: cell-based; settings: Table 1; 48 hours, Bright Glo luminescence; read-out: Ba/F3 Tel-TrkA
T1 construct: expressed in transfected cells; host or cells: Ba/F3 murine hematopoietic progenitor cells (luciferase expressing); the other entry of the earlier key: ETV6 (P41212, Transcription factor ETV6)
T1 sequence (P04629 510-796 limits assumed): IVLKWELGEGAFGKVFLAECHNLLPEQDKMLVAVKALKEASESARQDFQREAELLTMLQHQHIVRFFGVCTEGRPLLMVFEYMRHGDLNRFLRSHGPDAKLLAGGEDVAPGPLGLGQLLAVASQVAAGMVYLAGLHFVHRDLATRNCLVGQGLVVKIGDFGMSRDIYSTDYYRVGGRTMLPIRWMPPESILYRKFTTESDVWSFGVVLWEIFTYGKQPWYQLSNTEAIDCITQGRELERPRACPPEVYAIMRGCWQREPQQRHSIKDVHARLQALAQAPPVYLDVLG
Description: Compound dilutions were made in 384 well plates.
The emited luminiscence is quantified using ViewLux (PerkinElmer).

parental Ba/F3 cells = experiment: Proliferation of parental (untransformed, wt) Ba/F3 cells (BAF3/WT); assay type: cell-based, murine; settings: Mus musculus, Table 1, parental cells with IL3, 48 hours
Procedure, shortened: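 Parental Ba/F3 cells, maintained with mouse IL-3, were plated at 700 cells/well with compound (0.17 nM to 10 uM, 3-fold dilutions). After 48 h at 37 °C, proliferation was read by Bright-Glo luminescence.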

SMILES	IC50 [1] [nM]	IC50 (parental Ba/F3 cells) [nM]
CC(=O)OCC(=O)N1CCC(NC(=O)c2cnc3ccc(N4CCC[C@@H]4c4cccc(F)c4)nn23)CC1 [X-73, (R)-2-(4-(6-(2-(3-fluorophenyl)pyrrolidin-1-yl)imidazo[1,2-b]pyridazine-3-carboxamido)piperidin-1-yl)-2-oxoethyl acetate]	109	> 10000
O=C(NOCC1CC1)c1cnc2ccc(N3CCC[C@@H]3c3cccc(F)c3)nn12 [X-143]	45	> 10000
C[C@H](O)C(=O)N1CCC(NC(=O)c2cnc3ccc(N4CCC[C@@H]4c4cccc(F)c4)nn23)CC1 [X-34]	76	> 10000
CNC(=O)c1cnc2ccc(N3CCC[C@@H]3c3cccc(F)c3)nn12 [X-43]	46	> 10000
O=C(NC1CCNCC1)c1cnc2ccc(N3C[C@@H](F)C[C@@H]3c3cccc(F)c3)nn12 [X-120]	331	> 10000
NC(=O)c1cnc2ccc(N3CCCC3c3cccc(F)c3)nn12 (centres unmarked) [X-5, 6-(2-(3-fluorophenyl)pyrrolidin-1-yl)imidazo[1,2-b]pyridazine-3-carboxamide]	117	> 10000
COCCONC(=O)c1cnc2ccc(N3CCC[C@H]3c3cccc(F)c3)nn12 [X-148]	28	> 10000
CC(C)(C)OC(=O)Nc1cnc2ccc(N3CCC[C@@H]3c3cccc(F)c3)nn12 [X-233]	379	> 10000
CS(=O)(=O)N1CC[C@@H](NC(=O)c2cnc3ccc(N4CCC[C@@H]4c4cccc(F)c4)nn23)C1 [X-70]	293	> 10000
CC(=O)O[C@@H](C)C(=O)N1CCC(NC(=O)c2cnc3ccc(N4CCC[C@@H]4c4cccc(F)c4)nn23)CC1 [X-33]	105	> 10000
O=C(NCCc1ccc(F)cc1)c1cnc2ccc(N3CCC[C@@H]3c3cccc(F)c3)nn12 [X-37]	137	> 10000
N#Cc1cnc2ccc(N3CCOCC3c3cccc(F)c3)nn12 (centres unmarked) [X-3, 6-(3-(3-fluorophenyl)morpholino)imidazo[1,2-b]pyridazine-3-carbonitrile]	957	> 10000
CCNC(=O)c1cnc2ccc(N3CCC[C@@H]3c3cccc(F)c3)nn12 [X-55]	7	> 9620
[2H]C1([2H])N(c2ccc3ncc(C(=O)OCC)n3n2)C([2H])(c2cccc(F)c2)C([2H])([2H])C1([2H])[2H] (centres unmarked) [X-163]	79	> 10000
O=C(C=Cc1cccc(F)c1)c1cnc2ccc(N3CCC[C@@H]3c3cccc(F)c3)nn12 [X-126, (R)-3-(3-fluorophenyl)-1-(6-(2-(3-fluorophenyl)pyrrolidin-1-yl)imidazo[1,2-b]pyridazin-3-yl)prop-2-en-1-one]	22	1090
NC(=O)c1cnc2ccc(N3C[C@@H](F)C[C@@H]3c3ccc(F)c(F)c3)nn12 [X-240]	198	> 10000
NC(=O)c1cnc2ccc(N3CCOCC3c3cccc(F)c3)nn12 (racemic) [X-16, 6-(3-(3-fluorophenyl)morpholino)imidazo[1,2-b]pyridazine-3-carboxamide]	614	> 10000
CCNS(=O)(=O)c1cnc2ccc(N3CCC[C@@H]3c3cccc(F)c3)nn12 [X-237, (R)-N-ethyl-6-(2-(3-fluorophenyl)pyrrolidin-1-yl)imidazo[1,2-b]pyridazine-3-sulfonamide]	3320	> 10000
COC(=O)N[C@@H](C)CNC(=O)c1cnc2ccc(N3CCC[C@@H]3c3cccc(F)c3)nn12 [X-87]	76	> 10000
COC[C@H](C)NC(=O)c1cnc2ccc(N3CCC[C@@H]3c3cccc(F)c3)nn12 [X-54]	53	> 10000
O=C(NCCC1CCCCC1)c1cnc2ccc(N3CCC[C@@H]3c3cccc(F)c3)nn12 [X-91]	289	6160
CCOC(=O)c1cnc2ccc(N3C[C@H](O)C[C@@H]3c3cccc(F)c3)nn12 [X-160, ethyl 6-((2R,4R)-2-(3-fluorophenyl)-4-hydroxypyrrolidin-1-yl)imidazo[1,2-b]pyridazine-3-carboxylate]	73	> 10000
CC(C)(C)OC(=O)NCC(=O)Nc1cnc2ccc(N3CCC[C@@H]3c3cccc(F)c3)nn12 [X-192]	127	> 10000
CC(=O)c1cnc2ccc(N3CCC[C@@H]3c3cccc(F)c3)nn12 [X-125, (R)-1-(6-(2-(3-fluorophenyl)pyrrolidin-1-yl)imidazo[1,2-b]pyridazin-3-yl)ethanone]	219	> 10000
NC(=O)c1cnc2ccc(N3CCCCC3c3cccc(F)c3)nn12 (centres unmarked) [X-18]	27	> 10000
O=C(NC[C@H](O)CO)c1cnc2ccc(N3CCC[C@@H]3c3cccc(F)c3)nn12 [X-105]	388	> 10000

SMILES	IC50 [1] [nM]	IC50 (parental Ba/F3 cells) [nM]
O=C(/C=C/c1cccc(N2CCOCC2)n1)c1cnc2ccc(N3CCC[C@@H]3c3cccc(F)c3)nn12 [X-128]	174	1390
CC(=O)OCC(=O)Nc1cnc2ccc(N3CCC[C@@H]3c3cccc(F)c3)nn12 [X-172, (R)-2-(6-(2-(3-fluorophenyl)pyrrolidin-1-yl)imidazo[1,2-b]pyridazin-3-ylamino)-2-oxoethyl acetate]	38	> 10000
CC(=O)N1CC(NC(=O)c2cnc3ccc(N4CCC[C@@H]4c4cccc(F)c4)nn23)C1 [X-64]	832	> 10000
COC(=O)NC(=O)c1cnc2ccc(N3CC(F)(F)C[C@@H]3c3cccc(F)c3)nn12 [X-249]	18	> 10000
NNC(=O)c1cnc2ccc(N3CCC[C@@H]3c3cccc(F)c3)nn12 [X-155]	242	> 10000
NS(=O)(=O)CCNC(=O)c1cnc2ccc(N3C[C@@H](F)CC3c3cccc(F)c3)nn12 (some centres unmarked) [X-118]	54	> 10000
CCC(=O)c1cnc2ccc(N3CCC[C@@H]3c3cccc(F)c3)nn12 [X-123, (R)-1-(6-(2-(3-fluorophenyl)pyrrolidin-1-yl)imidazo[1,2-b]pyridazin-3-yl)propan-1-one]	97	> 10000
CC1(C)CCC(CNC(=O)c2cnc3ccc(N4CCC[C@@H]4c4cccc(F)c4)nn23)O1 (some centres unmarked) [X-36]	120	> 10000
[2H]C1(c2cccc(F)c2)CCCN1c1ccc2ncc(C(=O)OCC)n2n1 (centres unmarked) [X-162]	80	> 10000
CC(C)(C)OC(=O)N1CC(NC(=O)c2cnc3ccc(N4CCC[C@@H]4c4cccc(F)c4)nn23)C1 [X-61]	144	> 10000
Fc1cccc([C@H]2CC(F)(F)CN2c2ccc3ncc(Br)n3n2)c1 [X-245, (R)-3-bromo-6-(4,4-difluoro-2-(3-fluorophenyl)pyrrolidin-1-yl)imidazo[1,2-b]pyridazine]	44	> 10000
CC(C)C[C@@H](CO)NC(=O)c1cnc2ccc(N3CCC[C@@H]3c3cccc(F)c3)nn12 [X-104]	697	> 10000
CC(=O)NCC(=O)Nc1cnc2ccc(N3CCC[C@H]3c3cccc(F)c3)nn12 [X-201]	392	> 10000
O=C(NC1CCN(C(=O)CO)CC1)c1cnc2ccc(N3CCC[C@@H]3c3cccc(F)c3)nn12 [X-75, (R)-6-(2-(3-fluorophenyl)pyrrolidin-1-yl)-N-(1-(2-hydroxyacetyl)piperidin-4-yl)imidazo[1,2-b]pyridazine-3-carboxamide]	98	> 10000
O=C(NCC(F)(F)C(F)(F)F)c1cnc2ccc(N3CCC[C@H]3c3cccc(F)c3)nn12 [X-60]	35	> 10000
O=C(NCCCN1CCOCC1)c1cnc2ccc(N3CCC[C@@H]3c3cccc(F)c3)nn12 [X-58]	390	> 10000
NC(=O)c1cnc2ccc(N3CCC[C@@H]3c3cccc(F)c3)nn12 [X-6]	51	> 10000
O=C(NC[C@H]1CCCO1)c1cnc2ccc(N3CCC[C@@H]3c3cccc(F)c3)nn12 [X-84]	30	> 10000
O=C(NCC(F)F)c1cnc2ccc(N3C[C@@H](F)C[C@@H]3c3cccc(F)c3)nn12 [X-114]	1	7490
CC(C)(C)OC(=O)N1CCC(NC(=O)c2cnc3ccc(N4C[C@@H](F)C[C@@H]4c4cccc(F)c4)nn23)CC1 [X-115]	1	4600
CS(=O)(=O)N1CCC(NC(=O)c2cnc3ccc(N4CCC[C@@H]4c4cccc(F)c4)nn23)CC1 [X-71, (R)-6-(2-(3-fluorophenyl)pyrrolidin-1-yl)-N-(1-(methylsulfonyl)piperidin-4-yl)imidazo[1,2-b]pyridazine-3-carboxamide]	22	> 10000
CC(C)CNC(=O)c1cnc2ccc(N3CCC[C@@H]3c3cccc(F)c3)nn12 [X-94]	16	> 10000
[2H]C1([2H])C(c2cccc(F)c2)N(c2ccc3ncc(C(N)=O)n3n2)C([2H])([2H])C1([2H])[2H] (centres unmarked) [X-12]	105	> 10000
NC(=O)NC(=O)c1cnc2ccc(N3CC(F)(F)C[C@@H]3c3cccc(F)c3)nn12 [X-248, (R)-N-carbamoyl-6-(4,4-difluoro-2-(3-fluorophenyl)pyrrolidin-1-yl)imidazo[1,2-b]pyridazine-3-carboxamide]	19	> 10000
CC(=O)OC(C)(C)C(=O)Nc1cnc2ccc(N3CCC[C@@H]3c3cccc(F)c3)nn12 [X-188]	46	> 10000
NC(=NO)c1cnc2ccc(N3CCC[C@@H]3c3cccc(F)c3)nn12 [X-227, (Z)-6-(2-(3-fluorophenyl)pyrrolidin-1-yl)-N′-hydroxyimidazo[1,2-b]pyridazine-3-carboximidamide]	44	> 10000
